Laboratory results published in patent publication US8697747B2, “Enhancing coagulation or reducing fibrinolysis” (THe UAB Research Foundation, priority 2009, dated 2014).

Test system: pooled normal plasma
Assay: Dilution-response thrombelastography in plasma diluted with NS or VOL (no tPA)
Assay type: biochemical, human
Description: Plasma and volume expanders. Pooled normal plasma (George King Bio-Medical, Overland Park, Kans.) anticoagulated with sodium citrate was utilized for experimentation. […] The volume expanders tested were 0.9% NaCl (Abbott Laboratories, North Chicago, Ill.; also designated as NS) and 6% hydroxylethyl starch (HES) in 0.9% NaCl (VOLUVEN®, average molecular weight 130 kDa, 0.4 degree of substitution, C2:C6 ratio of substitution 11.2; Fresenius Kabi, Bad Homburg, Germany; also referred to as VOL).
Plasma sample composition of dilution-response experiments. The final volume for all subsequently described plasma sample mixtures was 359.6 μL. Sample composition consisted of 326 μL of plasma/volume expander, 10 μL of tissue factor reagent (0.1% final concentration in dH2O; Instrumentation Laboratory, Lexington, Mass.), 3.6 μL of dimethyl sulfoxide (DMSO) or DMSO with CORM-2 (100 μM final concentration; Sigma-Aldrich, St. Louis, Mo.), and 20 μL of 200 mM CaCl2. Tissue factor stock was kept on ice prior to use and was remade every two hours. […] DMSO was added to dry CORM-2 just prior to placement into the plasma mixture. Plasma was diluted 0%, 20%, 30%, 40% or 50% with NS or VOL (n=4 per condition).
Clot Lifespan Model (CLSM) Analyses. Plasma sample mixtures were placed in a disposable cup in a computer-controlled THROMBELASTOGRAPH® hemostasis system (Model 5000, Haemoscope Corp., Niles, Ill.), with addition of CaCl2 as the last step to initiate clotting. In the first series of experiments, no tPA was added, so data were collected until clot strength (maximum amplitude) was stable. In the second series of experiments which in tPA was added, data were collected until clot lysis time occurred. […] Additional elastic modulus-based parameters were determined and the nomenclature used to describe these phenomena is as follows: Time to maximum rate of thrombus generation (TMRTG): This is the time interval (sec) observed prior to maximum speed of clot growth. Maximum rate of thrombus generation (MRTG): This is the maximum velocity of clot growth observed (dynes/cm^2/sec). Total Thrombus Generation (TTG): This is the total area under the velocity curve during clot growth (dynes/cm^2), representing the amount of clot strength generated during clot growth. Time to maximum rate of lysis (TMRL): This is the time interval (sec) measured from the time of maximum strength to the time when the velocity of clot disintegration is maximal. Maximum Rate of Lysis (MRL): This is the maximum velocity of clot disintegration observed (−dynes/cm^2/sec). Area of Clot Lysis (ACL): This is the total area under the velocity curve during clot disintegration (−dynes/cm^2), representing the amount of clot strength lost during clot disintegration. As this model involves complete fibrinolysis, TTG is equivalent to ACL, so ACL was not presented as it provides no additional information.
Statistical Analyses. Data obtained from pooled normal plasma not exposed to tPA were graphically represented with commercially available software (SigmaPlot 11.0, Systat Software, Inc., San Jose, Calif.), and kinetic modeling of thrombelastographic data performed with the same software. Analyses of the effects of hemodilution and CORM-2 on CLSM variables obtained from pooled normal plasma were conducted using Kruskal-Wallis one way analysis of variance with Student-Newman-Keuls post-hoc test. […] These analyses were conducted with the same commercially available software (SigmaPlot 11.0). A P value of <0.05 was considered significant.

[1] = 20% dilution with VOL + 100 μM CORM-2, no tPA
[2] = 30% dilution with VOL + 100 μM CORM-2, no tPA
[3] = 40% dilution with VOL + 100 μM CORM-2, no tPA
[4] = 50% dilution with VOL + 100 μM CORM-2, no tPA
[5] = undiluted samples, no tPA, 100 μM CORM-2

With `[C-]#[O+].[C-]#[O+].[C-]#[O+].[C-]#[O+].[C-]#[O+].[C-]#[O+].[Cl][Ru][Cl].[Cl][Ru][Cl]` [CORM-2, tricarbonyldichlororuthenium (II) dimer] the “MRTG, % of undiluted samples” value [1] was 93%, the “TTG, % of undiluted samples” value [1] was 76% and the “MRTG, % of undiluted samples” value [2] was 67%. For the same molecule, the “TTG, % of undiluted samples” value [2] was 50%, the “MRTG, % of undiluted samples” value [3] was 60% and the “TTG, % of undiluted samples” value [3] was 45%. The “MRTG, % of undiluted samples” value [4] was 22%, the “TTG, % of undiluted samples” value [4] was 17% and the “increase in MRTG with CORM-2 exposure” value (samples diluted 50% with NS, no tPA, 100 μM CORM-2) was 12%. The “MRTG greater than matched diluted samples not exposed to CORM-2” value (samples diluted with NS (except 50%), no tPA, 100 μM CORM-2) was 40-50%, the “increase in MRTG” value [5] was 75% and the “increase in TTG” value [5] was 59%.
